Data as given in ChEMBL document CHEMBL4321815, “Discovery of an Extremely Potent Thiazine-Based β-Secretase Inhibitor with Reduced Cardiovascular and Liver Toxicity at a Low Projected Human Dose” (J Med Chem, 2019).

Assays:
Canis familiaris [1] = assay: In vivo inhibition of BACE1 in po dosed Beagle dog assessed as plasma level causing 50% reduction in amyloidbeta42 level in CSF administered as single dose measured after 4 to 49 hrs; assay type: functional, organism-based; conditions: Canis lupus familiaris
Homo sapiens [2] = assay: In vivo inhibition of BACE1 in human assessed as reduction in amyloidbeta level at 75 mg administered once daily relative to control; assay type: functional
Canis familiaris [3] = species: Canis familiaris; assay: animal or person; assay type: functional, organism-based; conditions: Canis lupus familiaris, Beagle
Homo sapiens [4] = assay: In vivo inhibition of BACE1 in human assessed as reduction in amyloidbeta level at 40 mg administered once daily relative to control; assay type: functional

Row | EC50 (Canis familiaris [1]) | EC50 (Canis familiaris [3]) | Structure (SMILES) | inhibition (INH) (Homo sapiens [2]) | inhibition (INH) (Homo sapiens [4])
1 | 22 nM | 8.1 nM | C[C@H]1OC[C@]2(c3cc(NC(=O)c4cnc(C(F)F)cn4)ccc3F)N=C(N)SC[C@H]12 [ELENBECESTAT] | 80% | 
2 | 34 nM |  | CN1C(N)=N[C@](C)(c2cc(NC(=O)c3ccc(F)cn3)ccc2F)CS1(=O)=O [VERUBECESTAT] |  | 80%
